Values of other authors, collected in patent US20070077258A1 (priority 2005, published 2007).
Like-named read-outs stand apart in the source and are kept apart here.

Legend:
[1] = system: influenza virus in Normal Human Small Airway Epithelial Cells (SAEC)
[2] = 3 grams of glutathione by oral ingestion
[3] = system: influenza virus in Madin-Darby Canine Kidney (MDCK) Cells

N[C@@H](CCC(=O)N[C@@H](CS)C(=O)NCC(=O)O)C(=O)O [glutathione, gamma-glutamyl-cysteinyl-glycine]
replication of flu virus [1]: prevention of replication of flu virus was demonstrated | tolerability (1500 mg /m2): well tolerated | tolerability (2500 mg daily for 5 days): well tolerated | toxicity reported (in vivo): No toxicity | effect on plasma glutathione levels [2]: does not elevate plasma glutathione levels | replication of flu virus [3]: prevention of replication of flu virus was demonstrated
